Assay results reported in publication PMC12472577, “Trimetazidine–Profen Hybrid Molecules: Synthesis, Chemical Characterization, and Biological Evaluation of Their Racemates” (Pharmaceuticals, 2025).
“And” between values parts separate entries of the source, which are not always exact repeats. Equal values may be shown once. Read-outs that look alike come from different tables or passages of the source.

Columns and labels:
human albumin = target: T1, human albumin (Homo sapiens, UniProt P02768); assay: Inhibition of albumin denaturation (IAD); format: biochemical
T1 construct: purchased BB-NCIPD Ltd., Sofia, Bulgaria
Method: The in vitro analysis of the anti-inflammatory activity was evaluated by measuring the inhibition of albumin denaturation (IAD). The analysis was carried out according to the method of Manolov et al. with minor modifications. The experiment was conducted using human albumin. A 1% albumin solution was prepared in distilled water at pH 7.4. Test samples and standards were initially dissolved in 1 mL of DMSO, then supplemented with 1% Tween 80 in PBS to achieve a final stock solution concentration of 1000 μg/mL. Subsequently, a series of working solutions at varying concentrations (20–500 μg/mL) in 1% Tween 80/PBS were prepared. The reaction mixture consisted of 2 mL of the test sample or standard at varying concentrations and 1 mL of 1% albumin. The mixture was incubated at 37 °C for 15 min, followed by heating at 70 °C for 15 min in a water bath. After cooling, the turbidity was measured at 660 nm using a spectrophotometer (CamSpec M508, Leeds, UK). Ibuprofen served as the standard. The experiment was conducted in triplicate. The percentage inhibition of albumin denaturation (IAD) was calculated against the control. The control sample consisted of albumin at the same concentration dissolved in distilled water.(3) %IAD=Ablank−Asample/Ablank×100

[1] = Lipophilicity as RM values by reversed-phase thin-layer chromatography (RP-TLC); format: physicochemical
Method: In this study, the lipophilicity of the synthesized trimetazidine–profen derivatives was evaluated using a practical and widely applied technique—reversed-phase thin-layer chromatography (RP-TLC)—following the methodology outlined by Pontiki and Hadjipavlou-Litina.
The lipophilicity of the trimetazidine–profen derivatives was determined following the procedure described by Pontiki and Hadjipavlou-Litina.

[2] = Hydroxyl radical scavenging activity (HRSA), Fenton reaction / 1,10-phenanthroline; format: biochemical; settings: IC50 ± SD, triplicate; 60 min at 37 °C, pH 7.40
Method: The hydroxyl radical-scavenging activity of the samples was measured according to the method of Luo et al.. In this system, hydroxyl radicals were generated by the Fenton reaction. Hydroxyl radicals could oxidize Fe^2+ into Fe^3+, and only Fe^2+ could be combined with 1,10-phenanthroline to form a red compound (1,10-phenanthroline-Fe^2+) with a maximum absorbance at 536 nm. The concentration of the hydroxyl radical was reflected by the degree of decolorization of the reaction solution. In test tubes 1 mL of 1,10-phenanthroline solution (0.75 mM), 2.0 mL of phosphate buffer saline (0.2 M, pH 7.40), and 1 mL of the samples/standard were added and mixed homogeneously. A total of 1.0 mL of the FeSO4 solution (0.75 mM) was then pipetted into the mixture. The reaction was initiated by adding 1.0 mL H2O2 (0.03% v/v). After incubation at 37°C for 60 min in a water bath, the absorbance of the reaction mixture was measured at 536 nm against reagent blank. The reaction mixture without any antioxidant was used as the negative control, and without H2O2 was used as the blank. The hydroxyl radical scavenging activity (HRSA) was calculated by the following formula:(2) I,%(HRSA)=AS−An/Ab−An×100 where As, An, and Ab were the absorbance values determined at 536 nm of the sample, the negative control, and the blank after reaction, respectively.

[3] = Hydrogen peroxide scavenging activity (HPSA); format: biochemical; settings: IC50 ± SD, triplicate; 10 min at 37 °C, pH 7.4
Method: The Manolov et al. approach was used to evaluate a capacity to scavenge hydrogen peroxide. A 43 mM solution of H2O2 was prepared in a potassium phosphate buffer solution (0.2 M, pH 7.4). The analysis of the samples was carried out as follows: in test tubes, 0.6 mL H2O2 (43 mM), 1 mL sample/standard with different concentrations (20–1000 µg/mL), and 2.4 mL potassium phosphate buffer solution were mixed. The mixture was stirred and incubated in the dark for 10 min at 37 °C. Absorbance was measured at 230 nm with a spectrophotometer (CamSpec M508, Leeds, UK) against a blank solution containing the phosphate buffer and H2O2 without the sample. […] The percentage HPSA of the samples was evaluated by comparing with a blank sample, and was calculated using the following formula:(1) I,%(HPSA)=Ablank−(ATS−ACS)/Ablank×100 where Ablank is the absorbance of the blank sample, ACS is the absorbance of the control sample, and ATS is the absorbance of the test sample.

[4] = Acute rat toxicity prediction using GUSAR software
Description: Given the potential toxicity concerns associated with both trimetazidine and profens, including rare gastrointestinal, hepatic, renal, and central nervous system effects, we evaluated the acute toxicity of the newly synthesized trimetazidine–profen hybrid molecules.
GUSAR software was developed to generate QSAR/QSPR models using appropriate training datasets. It enables an in silico prediction of LD50 values in rats for four routes of administration: oral, intravenous, intraperitoneal, and subcutaneous.
We employed the software to perform quantitative in silico predictions of the LD50 values for the synthesized trimetazidine–profen hybrids 3a–e.

[5] = composite across IP, IV, oral, SC GUSAR predictions, lower = more toxic, read-out: geometric mean of the four LD50 values

T1 sequence (P02768 25-609): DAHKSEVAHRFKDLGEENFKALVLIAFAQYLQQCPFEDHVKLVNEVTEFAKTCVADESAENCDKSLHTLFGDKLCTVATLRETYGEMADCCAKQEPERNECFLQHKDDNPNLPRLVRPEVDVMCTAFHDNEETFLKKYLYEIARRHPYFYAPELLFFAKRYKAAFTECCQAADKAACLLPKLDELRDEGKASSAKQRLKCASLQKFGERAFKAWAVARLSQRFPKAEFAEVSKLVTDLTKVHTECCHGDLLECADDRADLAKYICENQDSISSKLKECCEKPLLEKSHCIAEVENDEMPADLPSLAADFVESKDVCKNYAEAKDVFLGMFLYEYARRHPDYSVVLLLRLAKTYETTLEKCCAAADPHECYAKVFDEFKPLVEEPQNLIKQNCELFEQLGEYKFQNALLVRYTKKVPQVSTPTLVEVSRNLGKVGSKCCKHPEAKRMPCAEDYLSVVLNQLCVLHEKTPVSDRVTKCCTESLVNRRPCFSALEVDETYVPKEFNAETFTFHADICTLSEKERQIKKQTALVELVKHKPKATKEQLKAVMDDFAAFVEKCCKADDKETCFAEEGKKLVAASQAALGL

Row | SMILES | IC50 (human albumin) [µM] | RM ± SD [1] | HRSA IC50 [2] | HPSA IC50 [3] [µg/mL] | LD50 [4, 5] [mg/kg] | LD50 [4] [mg/kg]
1 | COc1ccc(CN2CCN(C(=O)C(C)c3ccc(CC(C)C)cc3)CC2)c(OC)c1OC (stereo not drawn) [3a, 2-(4-isobutylphenyl)-1-(4-(2,3,4-trimethoxybenzyl)piperazin-1-yl)propan-1-one] | 244 | 1.68 ± 0.021 and 1.68 | 77.98 µg/mL | 97.55 ± 1.21 | ~212 | –
2 | COc1ccc(CN2CCNCC2)c(OC)c1OC [compound 1, 1-[(2,3,4-trimethoxyphenyl)methyl]piperazine, reference compound] | – | – | – | – | – | ~246
3 | COc1ccc(CN2CCN(C(=O)C(C)c3ccc(-c4ccccc4)c(F)c3)CC2)c(OC)c1OC (stereo not drawn) [3d, 2-(2-fluoro-[1,1’-biphenyl]-4-yl)-1-(4-(2,3,4-trimethoxybenzyl)piperazin-1-yl)propan-1-one] | 235 | 1.45 ± 0.008 and 1.45 | 74.59 ± 1.02 µg/mL and 74.6 to 74.7 µg/mL | 135.25 ± 13.19 | ~287 | –
4 | COc1ccc(CN2CCN(C(=O)C(C)c3ccc4c(c3)[nH]c3ccc(Cl)cc34)CC2)c(OC)c1OC (stereo not drawn) [3e, 2-(6-chloro-9H-carbazol-2-yl)-1-(4-(2,3,4-trimethoxybenzyl)piperazin-1-yl)propan-1-one] | 225 | 1.55 ± 0.016 and 1.55 | 92.56 µg/mL | 99.75 ± 0.75 | ~369 | –
5 | COc1ccc(CN2CCN(C(=O)C(C)c3cccc(C(=O)c4ccccc4)c3)CC2)c(OC)c1OC (stereo not drawn) [3b, 2-(3-benzoylphenyl)-1-(4-(2,3,4-trimethoxybenzyl)piperazin-1-yl)propan-1-one] | 234 | 1.55 ± 0.015 and 1.55 | 74.72 ± 0.41 µg/mL and 74.6 to 74.7 µg/mL | 93.56 ± 1.29 | ~398 | –
6 | CC(C)Cc1ccc(C(C)C(=O)O)cc1 (stereo not drawn) [Ibuprofen, reference compound] | – | 1.11 ± 0.01 | – | – | – | –
7 | COc1ccc2cc(C(C)C(=O)N3CCN(Cc4ccc(OC)c(OC)c4OC)CC3)ccc2c1 (stereo not drawn) [3c, 2-(6-methoxynaphthalen-2-yl)-1-(4-(2,3,4-trimethoxybenzyl)piperazin-1-yl)propan-1-one] | 227 | 1.61 ± 0.020 and 1.61 | 71.13 µg/mL | 93.07 ± 0.43 | ~391 | –
